Experimental data as given in patent publication US20250145665A1, “MACROCYCLIC PEPTIDES USEFUL AS MODULATORS OF TNF ALPHA” (Bristol-Myers Squibb Company, priority 2023, published 2025).
pIC50: −log10 of the molar value. Read-outs that look alike come from different tables or passages of the source. Starred links: 1 amine or outer side, 2 acyl side, 3 side chain; linkers in the order of their positions; H or OH if unused. Positions of bridges follow the written chain, without caps; N, C: chain ends. Non-standard residues stand in square brackets, D forms with d. Residues, ends and D or L forms follow the SMILES beside them. *: point of attachment. Bip(4'-NHCO-C6H4-3-CH2COOH) = N[C@@H](Cc1ccc(-c2ccc(NC(=O)c3cccc(CC(=O)O)c3)cc2)cc1)C(=O)O; Bip(4'-NHCO-C6H4-4-CH2COOH) = N[C@@H](Cc1ccc(-c2ccc(NC(=O)c3ccc(CC(=O)O)cc3)cc2)cc1)C(=O)O; Bip(4'-(3-HOOC-benzamido)) = N[C@@H](Cc1ccc(-c2ccc(NC(=O)c3cccc(C(=O)O)c3)cc2)cc1)C(=O)O; X5 = Cn1nc(C(=O)Nc2ccc(-c3ccc(C[C@H](N[*:1])C(=O)[*:2])cc3)cc2)c2ccccc21; Bip(4'-NHBz) = N[C@@H](Cc1ccc(-c2ccc(NC(=O)c3ccccc3)cc2)cc1)C(=O)O; Bip(4'-NH) = O=C([C@H](Cc1ccc(-c2ccc(N[*:3])cc2)cc1)N[*:1])[*:2]; Bip(4'-COOH) = N[C@@H](Cc1ccc(-c2ccc(C(=O)O)cc2)cc1)C(=O)O; Ala(morpholin-4-yl) = N[C@@H](CN1CCOCC1)C(=O)O; Phe(3-CONH2) = NC(=O)c1cccc(C[C@H](N)C(=O)O)c1; Bip = N[C@@H](Cc1ccc(-c2ccccc2)cc1)C(=O)O; Ala(4-THP) = N[C@@H](CC1CCOCC1)C(=O)O; 2Pal = N[C@@H](Cc1ccccn1)C(=O)O; X32 = O=C(c1sc2cccc(Cl)c2c1Cl)*; 2Thi = N[C@@H](Cc1cccs1)C(=O)O; Cha = N[C@@H](CC1CCCCC1)C(=O)O; Chg = N[C@H](C(=O)O)C1CCCCC1; Sar = CNCC(=O)O

Biological target: TNFα (Homo sapiens, UniProt P01375)
Assay: TNF-Induced HEK-Blue Assay
Assay type: cell-based
[1] = HEK-Blue-CD40L cells, NF-kB-driven secreted alkaline phosphatase reporter, TNFα 0.5 ng/ml, 18 h, read-out: TNF induced HEK-Blue assay IC50 value

Chain of TNFα (P01375 77-233 limits assumed): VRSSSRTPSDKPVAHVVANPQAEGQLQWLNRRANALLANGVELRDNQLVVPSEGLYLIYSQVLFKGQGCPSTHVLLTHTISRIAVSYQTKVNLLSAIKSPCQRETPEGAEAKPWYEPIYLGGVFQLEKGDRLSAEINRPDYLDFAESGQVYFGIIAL

SMILES | pIC50 [1] | pIC50
CC(C)C[C@@H]1NC(=O)[C@H](CCCNC(=N)N)NC(=O)[C@H](C(C)C)NC(=O)[C@@H]2CCCN2C(=O)[C@H](C(C)C)NC(=O)[C@@H](CCCNC(=N)N)NC(=O)[C@H](CC(=O)O)NC(=O)[C@H](Cc2ccccn2)NC(=O)CN(C)C(=O)[C@H](Cc2ccc(-c3ccccc3)cc2)NC(=O)[C@H](Cc2ccc(-c3ccccc3)cc2)NC(=O)[C@H](CN2CCOCC2)NC(=O)CSC[C@@H](C(=O)NCC(N)=O)NC1=O [Example 205] ({CH2CO}-[Ala(morpholin-4-yl)][Bip][Bip][Sar][2Pal]D[dR]VPVRLCG-NH2; thioether N-13) | 6.70 to 7.30 | –
CC[C@H](C)[C@@H]1NC(=O)[C@@H](CCCNC(=N)N)NC(=O)[C@H](CC(=O)O)NC(=O)[C@H](Cc2cnc[nH]2)NC(=O)CN(C)C(=O)[C@H](Cc2ccc(-c3ccc(NC(=O)c4ccccc4)cc3)cc2)NC(=O)[C@H](Cc2ccc(-c3ccccc3)cc2)NC(=O)[C@H](CC2CCCCC2)NC(=O)CSC[C@@H](C(=O)NCC(N)=O)NC(=O)[C@H](CC(C)C)NC(=O)[C@H](Cc2cnc[nH]2)NC(=O)[C@H](C2CCCCC2)NC(=O)[C@@H]2CCCN2C1=O [Example 490] ({CH2CO}-[Cha][Bip][Bip(4'-NHBz)][Sar]HD[dR]IP[Chg]HLCG-NH2; thioether N-13) | – | 6.70 to 7.30
CC(C)C[C@@H]1NC(=O)[C@H](CCCNC(=N)N)NC(=O)[C@H](C(C)C)NC(=O)[C@@H]2CCCN2C(=O)[C@H](C(C)C)NC(=O)[C@@H](CCCNC(=N)N)NC(=O)[C@H](CC(=O)O)NC(=O)[C@@H]2CCCN2C(=O)CN(C)C(=O)[C@H](Cc2ccc(-c3ccc(NC(=O)c4nn(C)c5ccccc45)cc3)cc2)NC(=O)[C@H](Cc2ccc(-c3ccccc3)cc2)NC(=O)[C@H](CC2CCOCC2)NC(=O)CSC[C@@H](C(=O)NCC(N)=O)NC1=O [Example 304] ({CH2CO}-[Ala(4-THP)][Bip][X5][Sar]PD[dR]VPVRLCG-NH2; thioether N-13) | > 7.30 | –
CC[C@H](C)[C@@H]1NC(=O)[C@@H](CCCNC(=N)N)NC(=O)[C@H](CC(=O)O)NC(=O)[C@H](Cc2cnc[nH]2)NC(=O)CN(C)C(=O)[C@H](Cc2ccc(-c3ccc(NC(=O)c4sc5cccc(Cl)c5c4Cl)cc3)cc2)NC(=O)[C@H](Cc2ccc(-c3ccccc3)cc2)NC(=O)[C@H](CC2CCCCC2)NC(=O)CSC[C@@H](C(=O)NCC(N)=O)NC(=O)[C@H](CC(C)C)NC(=O)[C@H](Cc2cnc[nH]2)NC(=O)[C@H](C(C)C)NC(=O)[C@@H]2CCCN2C1=O [Example 325] ({CH2CO}-[Cha][Bip][Bip(4'-NH)](X32)[Sar]HD[dR]IPVHLCG-NH2; thioether N-13) | 5.70 to 6.70 | –
CC[C@H](C)[C@@H]1NC(=O)[C@@H](CCCNC(=N)N)NC(=O)[C@H](CC(=O)O)NC(=O)[C@H](Cc2cnc[nH]2)NC(=O)CN(C)C(=O)[C@H](Cc2ccc(-c3ccc(NC(=O)c4cccc(CC(=O)O)c4)cc3)cc2)NC(=O)[C@H](Cc2ccc(-c3ccc(C(=O)O)cc3)cc2)NC(=O)[C@H](CC2CCCCC2)NC(=O)CSC[C@@H](C(=O)NCC(N)=O)NC(=O)[C@H](CC(C)C)NC(=O)[C@H](Cc2cccc(C(N)=O)c2)NC(=O)[C@H](C(C)C)NC(=O)[C@@H]2CCCN2C1=O [Example 588] ({CH2CO}-[Cha][Bip(4'-COOH)][Bip(4'-NHCO-C6H4-3-CH2COOH)][Sar]HD[dR]IPV[Phe(3-CONH2)]LCG-NH2; thioether N-13) | > 7.30 | –

Continued, in another order:

pIC50 [1] | SMILES | pIC50
> 7.30 | CC(C)C[C@@H]1NC(=O)[C@H](Cc2cccs2)NC(=O)[C@H](C(C)C)NC(=O)[C@@H]2CCCN2C(=O)[C@H](C(C)C)NC(=O)[C@@H](CCCNC(=N)N)NC(=O)[C@H](CC(=O)O)NC(=O)[C@H](Cc2ccccn2)NC(=O)CN(C)C(=O)[C@H](Cc2ccc(-c3ccc(NC(=O)c4ccc(CC(=O)O)cc4)cc3)cc2)NC(=O)[C@H](Cc2ccc(-c3ccccc3)cc2)NC(=O)[C@H](CN2CCOCC2)NC(=O)CSC[C@@H](C(=O)NCC(N)=O)NC1=O [Example 607] ({CH2CO}-[Ala(morpholin-4-yl)][Bip][Bip(4'-NHCO-C6H4-4-CH2COOH)][Sar][2Pal]D[dR]VPV[2Thi]LCG-NH2; thioether N-13) | –
> 7.30 | CC[C@H](C)[C@@H]1NC(=O)[C@@H](CCCNC(=N)N)NC(=O)[C@H](CC(=O)O)NC(=O)[C@H](Cc2cnc[nH]2)NC(=O)CN(C)C(=O)[C@H](Cc2ccc(-c3ccc(NC(=O)c4cccc(C(=O)O)c4)cc3)cc2)NC(=O)[C@H](Cc2ccc(-c3ccccc3)cc2)NC(=O)[C@H](CC2CCCCC2)NC(=O)CSC[C@@H](C(=O)NCC(N)=O)NC(=O)[C@H](CC(C)C)NC(=O)[C@H](Cc2cnc[nH]2)NC(=O)[C@H](C(C)C)NC(=O)[C@@H]2CCCN2C1=O [Example 305] ({CH2CO}-[Cha][Bip][Bip(4'-(3-HOOC-benzamido))][Sar]HD[dR]IPVHLCG-NH2; thioether N-13) | –
